Laboratory results as given in PubChem BioAssay AID2060604 (Molecular Pharmacology Branch, DTP, NCI, 2025).

Test system: 379773-124-R-J2-PDC complex spheroids, viability % test/control
Test: Anticancer human tumor 379773-124-R-J2-PDC patient-derived endometrial carcinoma cell line growth inhibition [CLK]
Conditions: for IC50: curve of first compound; for viability, T/C: stronger effect = lower value
Method in brief: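 Patient-derived tumor cells grown as complex spheroids with HUVEC endothelial cells and mesenchymal stem cells, treated with drug combinations. Concentrations descend in half-log steps from near clinical Cmax, or from 10 microM if Cmax unknown.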

[1] = second compound 0.0316 µM, first compound 0.0316 µM
[2] = second compound 0.0316 µM, first compound 0.1 µM
[3] = second compound 0.0316 µM, first compound 0.316 µM
[4] = second compound 0.0316 µM, first compound 1 µM
[5] = second compound 0.0316 µM, first compound 3.16 µM
[6] = second compound 0.0316 µM, first compound 10 µM
[7] = second compound 0.1 µM, first compound 0.0316 µM
[8] = second compound 0.1 µM, first compound 0.1 µM
[9] = second compound 0.1 µM, first compound 0.316 µM
[10] = second compound 0.1 µM, first compound 1 µM
[11] = second compound 0.1 µM, first compound 3.16 µM
[12] = second compound 0.1 µM, first compound 10 µM
[13] = second compound 0.316 µM, first compound 0.0316 µM
[14] = second compound 0.316 µM, first compound 0.1 µM
[15] = second compound 0.316 µM, first compound 0.316 µM
[16] = second compound 0.316 µM, first compound 1 µM
[17] = second compound 0.316 µM, first compound 3.16 µM
[18] = second compound 0.316 µM, first compound 10 µM
[19] = second compound 1 µM, first compound 0.0316 µM
[20] = second compound 1 µM, first compound 0.1 µM
[21] = second compound 1 µM, first compound 0.316 µM
[22] = second compound 1 µM, first compound 1 µM
[23] = second compound 1 µM, first compound 3.16 µM
[24] = second compound 1 µM, first compound 10 µM
[25] = second compound 3.16 µM, first compound 0.0316 µM
[26] = second compound 3.16 µM, first compound 0.1 µM
[27] = second compound 3.16 µM, first compound 0.316 µM
[28] = second compound 3.16 µM, first compound 1 µM
[29] = second compound 3.16 µM, first compound 3.16 µM
[30] = second compound 3.16 µM, first compound 10 µM
[31] = second compound 10 µM, first compound 0.0316 µM
[32] = second compound 10 µM, first compound 0.1 µM
[33] = second compound 10 µM, first compound 0.316 µM
[34] = second compound 10 µM, first compound 1 µM
[35] = second compound 10 µM, first compound 3.16 µM
[36] = second compound 10 µM, first compound 10 µM
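Further: compound exposure lasted seven days before the viability readout.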
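Wherever viability, T/C is given: 100% = DMSO vehicle control wells.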

SMILES: CC(Nc1ccc2c(c1)OCCn1cc(N3C(=O)OCC3C(F)F)nc1-2)C(N)=O (stereo not drawn) + CNC(=O)c1ccc(Nc2nc(OC3CCCC3)c3c(-c4ccc5nc(C)oc5c4)c[nH]c3n2)c(OC)c1
- IC50 (second compound 0.0316 µM): > 10000 nM
- IC50 (second compound 0.1 µM): < 31.6 nM
- IC50 (second compound 0.316 µM): < 31.6 nM
- IC50 (second compound 1 µM): < 31.6 nM
- IC50 (second compound 3.16 µM): < 31.6 nM
- IC50 (second compound 10 µM): < 31.6 nM
- viability, T/C [1]: 74.7%
- viability, T/C [2]: 72.8%
- viability, T/C [3]: 78.1%
- viability, T/C [4]: 73.9%
- viability, T/C [5]: 76.3%
- viability, T/C [6]: 62.8%
- viability, T/C [7]: 38.7%
- viability, T/C [8]: 33.6%
- viability, T/C [9]: 21.3%
- viability, T/C [10]: 23.2%
- viability, T/C [11]: 24.6%
- viability, T/C [12]: 15.3%
- viability, T/C [13]: 40.3%
- viability, T/C [14]: 30.3%
- viability, T/C [15]: 29.1%
- viability, T/C [16]: 29.2%
- viability, T/C [17]: 19.1%
- viability, T/C [18]: 16.7%
- viability, T/C [19]: 35.5%
- viability, T/C [20]: 28.9%
- viability, T/C [21]: 25.1%
- viability, T/C [22]: 22.4%
- viability, T/C [23]: 19.9%
- viability, T/C [24]: 9.04%
- viability, T/C [25]: 32.5%
- viability, T/C [26]: 30%
- viability, T/C [27]: 23%
- viability, T/C [28]: 22.7%
- viability, T/C [29]: 18.3%
- viability, T/C [30]: 11.7%
- viability, T/C [31]: 32.5%
- viability, T/C [32]: 28.6%
- viability, T/C [33]: 23.5%
- viability, T/C [34]: 18.6%
- viability, T/C [35]: 22.3%
- viability, T/C [36]: 14%

SMILES: CCCS(=O)(=O)Nc1ccc(F)c(C(=O)c2c[nH]c3ncc(-c4ccc(Cl)cc4)cc23)c1F + CN1CCN(c2cc(C(=O)Nc3cc4cc(-c5cnn(C)c5)ccc4cn3)ccn2)CC1
- IC50 (second compound 0.0316 µM): > 10000 nM
- IC50 (second compound 0.1 µM): > 10000 nM
- IC50 (second compound 0.316 µM): < 31.6 nM
- IC50 (second compound 1 µM): < 31.6 nM
- IC50 (second compound 3.16 µM): < 31.6 nM
- IC50 (second compound 10 µM): < 31.6 nM
- viability, T/C [1]: 80.5%
- viability, T/C [2]: 86.1%
- viability, T/C [3]: 94.8%
- viability, T/C [4]: 90.1%
- viability, T/C [5]: 82.4%
- viability, T/C [6]: 58.7%
- viability, T/C [7]: 83.6%
- viability, T/C [8]: 65.8%
- viability, T/C [9]: 75.8%
- viability, T/C [10]: 70.2%
- viability, T/C [11]: 68.9%
- viability, T/C [12]: 54.8%
- viability, T/C [13]: 26.6%
- viability, T/C [14]: 27.3%
- viability, T/C [15]: 30.2%
- viability, T/C [16]: 27.2%
- viability, T/C [17]: 29.8%
- viability, T/C [18]: 18.3%
- viability, T/C [19]: 0.16%
- viability, T/C [20]: 0.29%
- viability, T/C [21]: 0.14%
- viability, T/C [22]: 0.13%
- viability, T/C [23]: 1.03%
- viability, T/C [24]: 0.09%
- viability, T/C [25]: 0.1%
- viability, T/C [26]: 0.48%
- viability, T/C [27]: 0.12%
- viability, T/C [28]: 0.91%
- viability, T/C [29]: 0.09%
- viability, T/C [30]: 0.51%
- viability, T/C [31]: 0.14%
- viability, T/C [32]: 1.01%
- viability, T/C [33]: 0.7%
- viability, T/C [34]: 2.8%
- viability, T/C [35]: 0.19%
- viability, T/C [36]: 0.29%

SMILES: CC(CO)NC(=O)c1cc(-c2ccc(Cl)cc2)nn(-c2cnn(C)c2)c1=O (stereo not drawn) + CNC(=O)c1ccc(Nc2nc(OC3CCCC3)c3c(-c4ccc5nc(C)oc5c4)c[nH]c3n2)c(OC)c1
- IC50 (second compound 0.0316 µM): > 10000 nM
- IC50 (second compound 0.1 µM): < 31.6 nM
- IC50 (second compound 0.316 µM): < 31.6 nM
- IC50 (second compound 1 µM): < 31.6 nM
- IC50 (second compound 3.16 µM): < 31.6 nM
- IC50 (second compound 10 µM): < 31.6 nM
- viability, T/C [1]: 72%
- viability, T/C [2]: 80.9%
- viability, T/C [3]: 70.2%
- viability, T/C [4]: 74.2%
- viability, T/C [5]: 72.4%
- viability, T/C [6]: 52.2%
- viability, T/C [7]: 48.2%
- viability, T/C [8]: 48.5%
- viability, T/C [9]: 44.4%
- viability, T/C [10]: 38.9%
- viability, T/C [11]: 36.8%
- viability, T/C [12]: 33.3%
- viability, T/C [13]: 42.1%
- viability, T/C [14]: 42.2%
- viability, T/C [15]: 37.7%
- viability, T/C [16]: 35.4%
- viability, T/C [17]: 43.8%
- viability, T/C [18]: 29.9%
- viability, T/C [19]: 32.2%
- viability, T/C [20]: 37.4%
- viability, T/C [21]: 34.8%
- viability, T/C [22]: 34.6%
- viability, T/C [23]: 35.6%
- viability, T/C [24]: 25.2%
- viability, T/C [25]: 32.6%
- viability, T/C [26]: 30%
- viability, T/C [27]: 32.5%
- viability, T/C [28]: 30.9%
- viability, T/C [29]: 34.5%
- viability, T/C [30]: 24.4%
- viability, T/C [31]: 32%
- viability, T/C [32]: 30.5%
- viability, T/C [33]: 28.5%
- viability, T/C [34]: 35.8%
- viability, T/C [35]: 32.4%
- viability, T/C [36]: 22.7%

SMILES: CCc1c2c(nc3ccc(O)cc13)-c1cc3c(c(=O)n1C2)COC(=O)[C@]3(O)CC + CNC(=O)c1ccc(Nc2nc(OC3CCCC3)c3c(-c4ccc5nc(C)oc5c4)c[nH]c3n2)c(OC)c1
- IC50 (second compound 0.0316 µM): < 3.16 nM
- IC50 (second compound 0.1 µM): < 3.16 nM
- IC50 (second compound 0.316 µM): < 3.16 nM
- IC50 (second compound 1 µM): < 3.16 nM
- IC50 (second compound 3.16 µM): < 3.16 nM
- IC50 (second compound 10 µM): < 3.16 nM
- viability, T/C (second compound 0.0316 µM, first compound 0.00316 µM): 12.8%
- viability, T/C (second compound 0.0316 µM, first compound 0.01 µM): 6.83%
- viability, T/C [1]: 2.79%
- viability, T/C [2]: 1.86%
- viability, T/C [3]: 0.94%
- viability, T/C [4]: 0.4%
- viability, T/C (second compound 0.1 µM, first compound 0.00316 µM): 7.91%
- viability, T/C (second compound 0.1 µM, first compound 0.01 µM): 4.87%
- viability, T/C [7]: 2.4%
- viability, T/C [8]: 1.19%
- viability, T/C [9]: 0.65%
- viability, T/C [10]: 0.35%
- viability, T/C (second compound 0.316 µM, first compound 0.00316 µM): 6.52%
- viability, T/C (second compound 0.316 µM, first compound 0.01 µM): 5.08%
- viability, T/C [13]: 2.12%
- viability, T/C [14]: 1.42%
- viability, T/C [15]: 0.6%
- viability, T/C [16]: 0.25%
- viability, T/C (second compound 1 µM, first compound 0.00316 µM): 5.11%
- viability, T/C (second compound 1 µM, first compound 0.01 µM): 4.25%
- viability, T/C [19]: 2.43%
- viability, T/C [20]: 0.96%
- viability, T/C [21]: 0.45%
- viability, T/C [22]: 0.37%
- viability, T/C (second compound 3.16 µM, first compound 0.00316 µM): 5.35%
- viability, T/C (second compound 3.16 µM, first compound 0.01 µM): 4.96%
- viability, T/C [25]: 1.98%
- viability, T/C [26]: 1.08%
- viability, T/C [27]: 0.6%
- viability, T/C [28]: 0.2%
- viability, T/C (second compound 10 µM, first compound 0.00316 µM): 5.38%
- viability, T/C (second compound 10 µM, first compound 0.01 µM): 4.45%
- viability, T/C [31]: 2.55%
- viability, T/C [32]: 1.19%
- viability, T/C [33]: 0.79%
- viability, T/C [34]: 0.39%
